Holding throughout (experiment): cell-based
For one assay, the target named is T1, TAS2R3 (Homo sapiens, UniProt Q9NYW6).
T1 sequence (Q9NYW6 1-316): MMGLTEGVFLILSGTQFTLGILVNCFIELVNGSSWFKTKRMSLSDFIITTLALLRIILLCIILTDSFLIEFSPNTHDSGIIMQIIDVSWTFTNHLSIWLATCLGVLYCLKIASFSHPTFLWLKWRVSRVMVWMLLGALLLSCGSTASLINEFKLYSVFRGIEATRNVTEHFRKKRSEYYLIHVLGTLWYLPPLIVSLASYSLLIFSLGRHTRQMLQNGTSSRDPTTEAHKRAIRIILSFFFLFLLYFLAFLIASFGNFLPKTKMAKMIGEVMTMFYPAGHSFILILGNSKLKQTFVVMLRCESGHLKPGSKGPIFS
Further details: bioluminescence intracellular calcium release assay, mt-clytin II with coelenterazine, Gα16-gust44 co-expressed. The settings on record: 293AD cells. The procedure:
(§1) The bioluminescence-based assay was used to characterize the functional properties of various human TAS2Rs. For each TAS2R, one or more of its cognate agonists were tested against either the AD-293 or 293AD cell line, or both. Both cell lines were used because of their stronger adherent properties, which facilitate media changes on the day of the FLIPR assay. However, because both cell lines are generated differently, some disparities in gene expression capacities due to a myriad of factors could be reasonably expected. Consequently, some TAS2Rs may be well expressed in one cell line but not the other, and the ability of each cell line to express a particular TAS2R needs to be empirically evaluated. […] However, deviations between our experimental and published potency values for some ligands (i.e. TAS2R4: stevioside; TAS2R7: Mg^2+, Mn^2+, Zn^2+) were observed, which could be attributed to the use of a different assay format, readout and processing parameters, use of different cell lines with resultant potential differences in TAS2R expression levels, and quality and methodological differences in ligand preparations. Because potency values could be obtained that were consistent with the literature, or close to the reported minimal effective stimulatory concentration upon further testing of other TAS2R4/7 agonists, the deviation in EC50 values could be largely attributed to qualitative differences in the ligands (Supplementary Fig. S3). Calcium responses induced by the tested cognate agonists reflected specific TAS2R stimulation. […] Poor localization of TAS2Rs to the cell surface in heterologous systems was associated with diminished receptor signaling output and functionality. One of the more commonly used strategies to enhance the density of TAS2Rs at the cell surface involves fusing an N-terminal signal sequence of either the SST3, or Rho receptor to the TAS2R[24]. We adopted this approach, specifically co-expressing SST3-TAS2R with Gα16-gust44 chimera and mt-clytin II, to develop and validate a bioluminescence-based TAS2R intracellular calcium release assay. A strength of the bioluminescence-based TAS2R assay is its capacity to generate greater assay spans than that of fluorescence-based assays, which could be largely attributed to the utilization of mt-clytin II as the calcium reporter. Calcium-binding photoproteins in general are useful reporters for studying calcium-mediated signaling processes. […] Its fast calcium binding and dissociation kinetics render it a suitable indicator to report on swift, transient changes in calcium ion concentrations and study rapid receptor-ligand interactions. Mitochondrial targeting of clytin II was crucial to generating higher luminescence intensity than that of cytosol-localized clytin II, as inositol 1,4,5-triphosphate (IP3)-induced calcium release from the ER subsequent to ligand activation is thought to result in the formation of ER-proximal, calcium-rich microdomains that enabled the closely apposed mitochondria to sense a higher initial rise in calcium concentration than would be experienced by the bulk cytosol.

Assay [1] concerns the target T2, TAS2R46 (Homo sapiens, UniProt P59540).
T2 sequence (P59540 1-309): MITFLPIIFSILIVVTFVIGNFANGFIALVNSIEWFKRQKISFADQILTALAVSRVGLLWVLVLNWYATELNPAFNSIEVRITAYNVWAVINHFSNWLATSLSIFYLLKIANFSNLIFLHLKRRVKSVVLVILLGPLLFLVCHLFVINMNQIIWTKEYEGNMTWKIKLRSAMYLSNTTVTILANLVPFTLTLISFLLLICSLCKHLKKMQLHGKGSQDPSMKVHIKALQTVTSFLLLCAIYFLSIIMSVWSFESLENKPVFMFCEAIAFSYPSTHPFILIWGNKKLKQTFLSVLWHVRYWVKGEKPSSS
More on the design: species or system 293AD; bioluminescence intracellular calcium release assay, mt-clytin II with coelenterazine, Gα16-gust44 co-expressed. The procedure:
(§2) The bioluminescence-based assay was used to characterize the functional properties of various human TAS2Rs. For each TAS2R, one or more of its cognate agonists were tested against either the AD-293 or 293AD cell line, or both. Both cell lines were used because of their stronger adherent properties, which facilitate media changes on the day of the FLIPR assay. However, because both cell lines are generated differently, some disparities in gene expression capacities due to a myriad of factors could be reasonably expected. Consequently, some TAS2Rs may be well expressed in one cell line but not the other, and the ability of each cell line to express a particular TAS2R needs to be empirically evaluated. […] However, deviations between our experimental and published potency values for some ligands (i.e. TAS2R4: stevioside; TAS2R7: Mg^2+, Mn^2+, Zn^2+) were observed, which could be attributed to the use of a different assay format, readout and processing parameters, use of different cell lines with resultant potential differences in TAS2R expression levels, and quality and methodological differences in ligand preparations. […] A strength of the bioluminescence-based TAS2R assay is its capacity to generate greater assay spans than that of fluorescence-based assays, which could be largely attributed to the utilization of mt-clytin II as the calcium reporter. […]

Assay [2] has as its target T2, TAS2R46. More on the design: species or system AD-293; bioluminescence intracellular calcium release assay, mt-clytin II with coelenterazine, Gα16-gust44 co-expressed. The procedure:
as §2

Another assay concerns the target T3, TAS2R39 (Homo sapiens, UniProt P59534).
T3 sequence (P59534 1-338): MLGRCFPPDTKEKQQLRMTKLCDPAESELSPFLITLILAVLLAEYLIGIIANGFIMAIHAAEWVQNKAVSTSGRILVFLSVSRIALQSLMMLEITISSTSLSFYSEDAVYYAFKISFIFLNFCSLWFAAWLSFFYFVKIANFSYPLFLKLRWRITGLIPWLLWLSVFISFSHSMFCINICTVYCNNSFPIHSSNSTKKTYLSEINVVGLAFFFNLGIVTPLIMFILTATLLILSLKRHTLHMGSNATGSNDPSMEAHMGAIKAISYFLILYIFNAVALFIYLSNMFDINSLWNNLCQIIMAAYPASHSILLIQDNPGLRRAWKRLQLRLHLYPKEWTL
More on the design: bioluminescence intracellular calcium release assay, mt-clytin II with coelenterazine, Gα16-gust44 co-expressed. The method, then: as §1

Another assay deals with T4, TAS2R5 (Homo sapiens, UniProt Q9NYW4).
T4 sequence (Q9NYW4 1-299): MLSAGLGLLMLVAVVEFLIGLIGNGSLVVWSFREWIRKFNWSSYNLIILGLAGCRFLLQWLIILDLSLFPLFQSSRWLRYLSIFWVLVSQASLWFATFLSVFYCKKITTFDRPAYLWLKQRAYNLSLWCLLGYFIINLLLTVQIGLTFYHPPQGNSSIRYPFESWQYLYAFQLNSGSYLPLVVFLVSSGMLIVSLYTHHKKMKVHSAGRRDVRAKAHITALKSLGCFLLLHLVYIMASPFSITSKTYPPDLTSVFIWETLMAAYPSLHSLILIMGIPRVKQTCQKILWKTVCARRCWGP
Further details: bioluminescence intracellular calcium release assay, mt-clytin II with coelenterazine, Gα16-gust44 co-expressed. As to conditions: 293AD cells. The method, then:
as §1

From paper PMC9587021, “Construction of a bioluminescence-based assay for bitter taste receptors (TAS2Rs)” (Scientific Reports, 2022) come the findings set out here.

Read-outs that look alike come from different tables or passages of the source.

With `CCN(CC)CCCC(C)Nc1ccnc2cc(Cl)ccc12` (stereo not drawn) [Chloroquine diphosphate], on TAS2R3, the EC50 (commonly the concentration at which the effect is half-maximal) is 45 ± 14 µM.
For the molecule `O=C1C[C@@H]2OCC=C3CN4CC[C@]56c7ccccc7N1[C@H]5[C@H]2[C@H]3C[C@H]46` [Strychnine], the EC50 is 0.309 ± 0.073 µM on TAS2R46 [1] and 1.2 µM on TAS2R46 [2].
Regarding `O=C(O[C@@H]1Cc2c(O)cc(O)cc2O[C@@H]1c1cc(O)c(O)c(O)c1)c1cc(O)c(O)c(O)c1` [Epigallocatechin gallate], the figures for the EC50 on TAS2R39 (293AD cells), on TAS2R39 (AD-293 cells) and at TAS2R5 were 141 ± 44 µM, 362 ± 81 µM and 47 ± 11 µM, respectively.
